Consider 88 molecules from a flash point compilation (Sun et al. 2020).

Counter-ions that a name gives are not always drawn.

For the molecule `c1ccc2cc3ccccc3cc2c1` [anthracene], the flash point is 121.00 °C. For the molecule `Cc1ccc([N+](=O)[O-])cc1.N.Nc1cccc([N+](=O)[O-])c1.Nc1ccccc1[N+](=O)[O-]` [azane;1-methyl-4-nitrobenzene;2-nitroaniline;3-nitroaniline], the flash point worked out at 154.00 °C. `O=C1CCCCCN1` [azepan-2-one]: the flash point amounted to 125.00 °C.

`C1CCCNCC1` [azepane] registered a flash point of 37.00 °C. The same measure for `Nc1ccccc1N` [benzene-1,2-diamine]: 156.00 °C; for `Oc1ccccc1O` [benzene-1,2-diol]: 127.00 °C; for `Nc1cccc(N)c1` [benzene-1,3-diamine]: 138.00 °C. The same measure for `O=C(Cl)c1cccc(C(=O)Cl)c1` [benzene-1,3-dicarbonyl chloride]: 180.00 °C. With `O=S(=O)(O)c1ccccc1` [benzenesulfonic acid], the flash point is 113.00 °C. As to `O=C(O)c1ccccc1` [benzoic acid], the flash point was 121.00 °C. The same measure for `O=C(OOC(=O)c1ccccc1)c1ccccc1` [benzoyl benzenecarboperoxoate]: 80.00 °C; for `O=C(Cl)c1ccccc1` [benzoyl chloride]: 72.00 °C; for `O=C(OCc1ccccc1)c1ccccc1O` [benzyl 2-hydroxybenzoate]: 180.00 °C. As for `O=C(Cl)OCc1ccccc1` [benzyl carbonochloridate], the figure is 108.00 °C; as for `c1ccc(Cc2ccccc2)cc1` [benzylbenzene], 130.00 °C. As for `C1=CC2C=CC1C2` [bicyclo[2.2.1]hepta-2,5-diene], the figure is -21.00 °C. The molecule `CCCCC(CC)COC(=O)/C=C\C(=O)OCC(CC)CCCC` (stereo not drawn) [bis(2-ethylhexyl) (Z)-but-2-enedioate] returned a flash point of 185.00 °C. Take `CCCCC(CC)COC(=O)c1ccccc1C(=O)OCC(CC)CCCC` (stereo not drawn) [bis(2-ethylhexyl) benzene-1,2-dicarboxylate]: the flash point was found to be 207.00 °C. As for `CCCCC(CC)COP(=O)(O)OCC(CC)CCCC` (stereo not drawn) [bis(2-ethylhexyl) hydrogen phosphate], the figure is 196.00 °C; as for `COCCOC(=O)c1ccccc1C(=O)OCCOC` [bis(2-methoxyethyl) benzene-1,2-dicarboxylate], 210.00 °C.

The molecule `CC(C)COC(=O)c1ccccc1C(=O)OCC(C)C` [bis(2-methylpropyl) benzene-1,2-dicarboxylate] gave a flash point of 196.00 °C. Take `CC(C)CCCCCOC(=O)CCCCC(=O)OCCCCCC(C)C` [bis(6-methylheptyl) hexanedioate]: the flash point is 210.00 °C. The same measure for `O=C(OCC1CO1)C1CCCCC1C(=O)OCC1CO1` (stereo not drawn) [bis(oxiran-2-ylmethyl) cyclohexane-1,2-dicarboxylate]: 190.00 °C; for `C=CCOC(=O)c1ccccc1C(=O)OCC=C` [bis(prop-2-enyl) benzene-1,2-dicarboxylate]: 110.00 °C. The same measure for `Brc1ccccc1` [bromobenzene]: 51.00 °C. On to `OCC#CCO` [but-2-yne-1,4-diol], for which the flash point is 128.00 °C.

Take `CCCCO.[Ti]` [butan-1-ol;titanium]: the flash point was 77.00 °C. Turning to `CCCC[O-].CCCC[O-].CCCC[O-].CCCC[O-].[Ti+4]` [butan-1-olate;titanium(4+)], the flash point came to 77.00 °C.

In turn, `CCCC=O` [butanal] yielded a flash point of -7.00 °C. The same measure for `CC(O)CCO` (stereo not drawn) [butane-1,3-diol]: 121.00 °C; for `CC(O)C(C)O` (stereo not drawn) [butane-2,3-diol]: 85.00 °C.

For `CCC(C)S` (stereo not drawn) [butane-2-thiol], the flash point was -23.00 °C. As for `CCCC` [butane], the figure is -60.00 °C; as for `CCCC#N` [butanenitrile], 17.00 °C.

With `CCCC(=O)O` [butanoic acid], the flash point came to 77.00 °C. `CCCC(=O)OC(=O)CCC` [butanoyl butanoate]: the flash point amounted to 82.00 °C. As for `C=C(C)C(=O)OCCCC` [butyl 2-methylprop-2-enoate], the figure is 52.00 °C; as for `CCCCOC(=O)c1ccc(O)cc1` [butyl 4-hydroxybenzoate], 181.00 °C; as for `CCCCOC(=O)[C@@H](C)Oc1ccc(Oc2ccc(C#N)cc2F)cc1` [butyl (2R)-2-[4-(4-cyano-2-fluorophenoxy)phenoxy]propanoate], 122.00 °C.

`CCCCOC(=O)CCC` [butyl butanoate]: the flash point came to 53.00 °C. As to `CCCCCCCCCCCCCCCCCC(=O)OCCCC` [butyl octadecanoate], the flash point was determined as 160.00 °C. The same measure for `CCCC[Si](Cl)(Cl)Cl` [butyl(trichloro)silane]: 52.00 °C. The same measure for `CCC[CH2][Sn]([Cl])([Cl])[Cl]` [butyl(trichloro)stannane]: 81.00 °C; for `C[CH2][Al]([Cl])[CH2]C.C[CH2][Al]([Cl])[Cl]` [chloro(diethyl)alumane;dichloro(ethyl)alumane]: -20.00 °C; for `C[CH2][Al]([Cl])[CH2]C` [chloro(diethyl)alumane]: -23.00 °C.

As for `Clc1ccccc1` [chlorobenzene], the flash point worked out at 24.00 °C.

In the case of `CCCCCCCCCCCCCCCCCC(=O)[O-].[Cl-].[Cl-].[Cl-].[Cl-].[Cr+3].[Cr+3].[OH-]` [chromium(3+);octadecanoate;tetrachloride;hydroxide], the flash point came out at 2.00 °C.

Molecule `C1CCCCCC1` [cycloheptane] had a flash point of 6.00 °C.

`O=CC1CC=CCC1` (stereo not drawn) [cyclohex-3-ene-1-carbaldehyde] returned a flash point of 57.00 °C. `NC1CCCCC1` [cyclohexanamine] yielded a flash point of 31.00 °C. Turning to `OC1CCCCC1` [cyclohexanol], the flash point stood at 68.00 °C. As for `CC(=O)OC1CCCCC1` [cyclohexyl acetate], the figure is 58.00 °C; as for `[C-]1=CC=CC1.[C-]1=CC=CC1.[Ni+2]` [cyclopenta-1,3-diene;nickel(2+)], 4.00 °C; as for `C1=CCC=C1.C1=CCC=C1.[Ni]` [cyclopenta-1,3-diene;nickel], 4.00 °C. `OC1CCCC1` [cyclopentanol] gave a flash point of 51.00 °C. As for `O=C1CCCC1` [cyclopentanone], the figure is 30.00 °C; as for `C1=CCCC1` [cyclopentene], -34.00 °C; as for `CCCCCCCCCC` [decane], 46.00 °C. Take `C=CC(=O)OCCCCCCCCCC` [decyl prop-2-enoate]: the flash point came out at 127.00 °C. Take `CCCCOC(=O)CCC(=O)OCCCC` [dibutyl butanedioate]: the flash point stood at 135.00 °C. On to `CC[Si](Cl)(Cl)CC` [dichloro(diethyl)silane], for which the flash point was 24.00 °C.

The molecule `ClC(Cl)c1ccccc1` [dichloromethylbenzene] displayed a flash point of 92.00 °C.

`O=C(OC1CCCCC1)c1ccccc1C(=O)OC1CCCCC1` [dicyclohexyl benzene-1,2-dicarboxylate] yielded a flash point of 207.00 °C. With `CCOC(=O)/C=C/C(=O)OCC` [diethyl (E)-but-2-enedioate], the flash point was 104.00 °C. The molecule `CCOC(=O)c1ccccc1C(=O)OCC` [diethyl benzene-1,2-dicarboxylate] registered a flash point of 140.00 °C. As for `CCOC(=O)CCC(=O)OCC` [diethyl butanedioate], the figure is 90.00 °C. The same measure for `CCOC(=O)OCC` [diethyl carbonate]: 25.00 °C.

Molecule `CCOC(=O)C(=O)OCC` [diethyl oxalate] displayed a flash point of 76.00 °C. `CCOS(=O)(=O)OCC` [diethyl sulfate] displayed a flash point of 104.00 °C. The molecule `CCCCCCCOC(=O)c1ccccc1C(=O)OCCCCCCC` [diheptyl benzene-1,2-dicarboxylate] had a flash point of 224.00 °C. The same measure for `COCOC` [dimethoxymethane]: -18.00 °C.

Take `COC(=O)CCC(=O)OC` [dimethyl butanedioate]: the flash point was found to be 85.00 °C. In the case of `COC(=O)CCCC(=O)OC` [dimethyl pentanedioate], the flash point came to 103.00 °C. Consider `COS(=O)(=O)OC` [dimethyl sulfate], for which the flash point stood at 83.00 °C. The same measure for `CN(C)C(=S)SSC(=S)N(C)C` [dimethylcarbamothioylsulfanyl N,N-dimethylcarbamodithioate]: 138.00 °C; for `CN(C)C#N` [dimethylcyanamide]: 71.00 °C. The same measure for `CCCCCCCCOP(=O)(O)OCCCCCCCC` [dioctyl hydrogen phosphate]: 196.00 °C. Regarding `CCCCCCCCCCCCCCCCCCCCCC` [docosane], the flash point turned out to be 113.00 °C.

Molecule `CCCCCCCCCCCCN` [dodecan-1-amine] registered a flash point of 178.00 °C. As for `CCCCCCCCCCCC(=O)O` [dodecanoic acid], the figure is 113.00 °C.

Take `CCO` [ethanol]: the flash point worked out at 13.00 °C. The same measure for `C=C` [ethene]: -136.00 °C; for `CCOc1ccccc1` [ethoxybenzene]: 63.00 °C.

As to `CCOC(=O)CBr` [ethyl 2-bromoacetate], the flash point amounted to 48.00 °C. As for `C=C(C#N)C(=O)OCC` [ethyl 2-cyanoprop-2-enoate], the flash point came out at 82.00 °C. With `CCOC(=O)C(C)O` (stereo not drawn) [ethyl 2-hydroxypropanoate], the flash point is 46.00 °C. As for `C=C(C)C(=O)OCC` [ethyl 2-methylprop-2-enoate], the figure is 16.00 °C. In turn, `CCOC(=O)CC(C)O` (stereo not drawn) [ethyl 3-hydroxybutanoate] had a flash point of 64.00 °C.
